# Read-outs that look alike come from different tables or passages of the source.
# What was measured:
# [1] = system: Human Colon Adenocarcinoma Cell Line sensitive to doxorubicin (LoVo); assay: In vitro cytotoxicity, colony inhibition test on human colon adenocarcinoma cell line sensitive to doxorubicin (LoVo); type: cell-based; conditions: read-out: ID50 (dose which gives 50% reduction of cell number in comparison with untreated controls), LoVo
# Experimental: (§1) Compound II (4-demethoxy-6-deoxy-6-aminodaunorubicin) and Compound III (4-demethoxy-6-deoxy-6-aminodoxorubicin) have been tested "in vitro" against Human Colon Adenocarcinoma Cell Line sensitive to doxorubicin (LoVo) and resistant to doxorubicin (LoVo/DX) in comparison with daunorubicin (DNR) and doxorubicin (DX).
# (§2) In Vitro cytotoxicity (a) on human colon adenocarcinoma cell
# (§3) line sensitive (LoVo) and resistant to doxorubicin (LoVo/DX)
# (§4) (a)Colony inhibition test: 4 hours treatment
# (§5) (b)dose which gives 50% reduction of cell number in comparison with
# (§6) In Vitro cytotoxicity (a) on human colon adenocarcinoma
# (§7) cell line sensitive (LoVo) and resistant to doxorubicin
# (§8) (LoVo/DX) of 4-demethoxy-6-deoxy-6-amino DX
# (§9) (a)Colony inhibition test: -24 hours treatment
# [2] = system: Human Colon Adenocarcinoma Cell Line resistant to doxorubicin (LoVo/DX); assay: In vitro cytotoxicity, colony inhibition test on human colon adenocarcinoma cell line resistant to doxorubicin (LoVo/DX); type: cell-based; conditions: read-out: ID50 (dose which gives 50% reduction of cell number in comparison with untreated controls), LoVo/DX
# Experimental: as §1, §2, §3, §4, §5, §6, §7, §8, §9
# [3] = Table 2, colony inhibition test, 24 hours treatment
# [4] = Table 1, colony inhibition test, 4 hours treatment
smiles,measurement,setting,value
"C[C@@H]1O[C@@H](O[C@H]2C[C@](O)(C(=O)CO)Cc3c(O)c4c(c(N)c32)C(=O)c2ccccc2C4=O)C[C@H](N)[C@@H]1O [Compound III, 4-demethoxy-6-deoxy-6-amino doxorubicin]",IC50,[1]; [3],0.099 µg/mL
same,IC50,[2]; [3],1.15 µg/mL
"COc1cccc2c1C(=O)c1c(O)c3c(c(O)c1C2=O)C[C@@](O)(C(=O)CO)C[C@@H]3O[C@H]1C[C@H](N)[C@H](O)[C@H](C)O1 [DX, doxorubicin]",IC50,[1]; 24 h,0.0266 µg/mL
same,IC50,[2]; 24 h,0.833 µg/mL
"COc1cccc2c1C(=O)c1c(O)c3c(c(O)c1C2=O)C[C@@](O)(C(C)=O)C[C@@H]3O[C@H]1C[C@H](N)[C@H](O)[C@H](C)O1 [DNR, daunorubicin]",IC50,[1]; 4 h,0.042 µg/mL
same,IC50,[2]; 4 h,2.36 µg/mL
"CC(=O)[C@]1(O)Cc2c(O)c3c(c(N)c2[C@@H](O[C@H]2C[C@H](N)[C@H](O)[C@H](C)O2)C1)C(=O)c1ccccc1C3=O [Compound II, 4-demethoxy-6-deoxy-6-amino daunorubicin]",IC50,[1]; [4],0.09 µg/mL
same,IC50,[2]; [4],4.4 µg/mL
